The results in this text go back to patent US9133158B2, “Bicyclic dihydroisoquinoline-1-one derivatives” (Hoffmann-La Roche Inc., priority 2011, dated 2015).

The target of one assay is T1, human CYP11B2 (Homo sapiens, UniProt P19099).
T1 construct: expressed in transfected cells
T1 sequence (P19099 25-503): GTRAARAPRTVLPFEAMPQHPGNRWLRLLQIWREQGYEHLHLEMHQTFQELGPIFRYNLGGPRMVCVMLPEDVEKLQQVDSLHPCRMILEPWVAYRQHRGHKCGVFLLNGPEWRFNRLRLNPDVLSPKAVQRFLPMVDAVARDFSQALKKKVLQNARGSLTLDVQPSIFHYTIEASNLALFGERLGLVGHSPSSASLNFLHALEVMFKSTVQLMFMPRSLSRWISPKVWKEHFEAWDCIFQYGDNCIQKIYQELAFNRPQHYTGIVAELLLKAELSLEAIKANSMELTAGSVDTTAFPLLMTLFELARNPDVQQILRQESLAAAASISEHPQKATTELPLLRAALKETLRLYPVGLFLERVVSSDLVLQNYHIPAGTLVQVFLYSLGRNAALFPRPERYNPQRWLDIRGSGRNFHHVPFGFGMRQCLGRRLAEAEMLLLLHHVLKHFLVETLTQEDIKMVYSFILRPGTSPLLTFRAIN
Put plainly: G-402 cellular enzyme assay, human CYP11B2 (aldosterone release, HTRF). In kind it is cell-based. The following applies: G-402 cells, 1 μM Deoxycorticosterone. In outline: (§1)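 G-402 cells stably expressing human CYP11B1 or CYP11B2, in DMEM/F12 with 2.5% charcoal-treated FCS, were incubated 16 h with test compound and substrate (1 μM 11-deoxycortisol for CYP11B1; 1 μM deoxycorticosterone for CYP11B2). Cortisol or aldosterone in supernatant was quantified by HTRF; EC50 from 4-parameter MMF fit.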
In general terms: TR-FRET usually uses a lanthanide donor and a delayed reading to cut background.

In another assay the target is T2, human CYP11B1 (Homo sapiens, UniProt P15538).
T2 construct: expressed in transfected cells
T2 sequence (P15538 25-503): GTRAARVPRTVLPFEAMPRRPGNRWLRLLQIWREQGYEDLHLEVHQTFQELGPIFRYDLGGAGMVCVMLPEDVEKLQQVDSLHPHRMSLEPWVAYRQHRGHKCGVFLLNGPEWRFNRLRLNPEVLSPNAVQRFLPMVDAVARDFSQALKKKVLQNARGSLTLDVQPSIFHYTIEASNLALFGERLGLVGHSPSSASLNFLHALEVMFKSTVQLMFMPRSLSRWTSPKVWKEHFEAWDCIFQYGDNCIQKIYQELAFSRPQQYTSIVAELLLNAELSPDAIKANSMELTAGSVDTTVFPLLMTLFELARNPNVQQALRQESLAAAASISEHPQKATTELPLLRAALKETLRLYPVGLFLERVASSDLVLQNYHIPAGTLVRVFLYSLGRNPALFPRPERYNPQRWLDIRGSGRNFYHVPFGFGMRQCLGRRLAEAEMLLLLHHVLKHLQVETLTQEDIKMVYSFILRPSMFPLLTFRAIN
Kind of assay: G-402 cellular enzyme assay, human CYP11B1 (cortisol release, HTRF). In kind it is cell-based. Conditions: G-402 cells, 1 μM Deoxycortisol. In outline:
as §1

Take `O=C1c2ccc(Cl)cc2CCN1c1cncc(Cn2ccnc2)c1` [Example 140, 6-Chloro-2-(5-imidazol-1-ylmethyl-pyridin-3-yl)-3,4-dihydro-2H-isoquinolin-1-one]: the values for the EC50 on human CYP11B2 and at human CYP11B1 were 11.8 nM and 70.4 nM, respectively.

In the case of `CC(=O)N1CCC(c2cncc(N3C(=O)c4ccc(Cl)cc4C3(C)C)c2)C1` (stereo not drawn) [Example 460, 2-[5-(1-Acetyl-pyrrolidin-3-yl)-pyridin-3-yl]-5-chloro-3,3-dimethyl-2,3-dihydro-isoindol-1-one], the 50% effective concentration (EC50) (as a rule, the concentration giving half of the maximal effect) turned out to be 12.3 nM at human CYP11B2 and 516 nM on human CYP11B1.

Consider `Cn1nccc1-c1cncc(N2CCc3cc(Cl)ccc3C2=O)c1` [Example 238, 6-Chloro-2-[5-(2-methyl-2H-pyrazol-3-yl)-pyridin-3-yl]-3,4-dihydro-2H-isoquinolin-1-one], for which the concentration for a half-maximal effect (EC50) was 104 nM at human CYP11B2 and 5990 nM on human CYP11B1.

Turning to `CC[C@H]1c2cc(Cl)ccc2C(=O)N1c1cncc2c1CCC[C@H]2NC(C)=O` (single isomer, unassigned) [Example 357, N-[(R or S)-4-((S or R)-5-Chloro-3-ethyl-1-oxo-1,3-dihydro-isoindol-2-yl)-5,6,7,8-tetrahydro-isoquinolin-8-yl]-acetamide], the figures for the half-maximal effective concentration (EC50) on human CYP11B2 and on human CYP11B1 were 98.2 nM and 3220 nM, respectively.

With `O=C1c2ccc(Cl)cc2CCN1c1cncc(NCc2ccc(F)cc2)c1` [Example 222, 6-Chloro-2-[5-(4-fluoro-benzylamino)-pyridin-3-yl]-3,4-dihydro-2H-isoquinolin-1-one], the concentration for a half-maximal effect (EC50) stood at 80.3 nM on human CYP11B2 and 343 nM on human CYP11B1.

Take `Cn1cncc1C(=O)NCc1cncc(N2C(=O)c3ccc(Cl)cc3C2(C)C)c1` [Example 435, 3-Methyl-3H-imidazole-4-carboxylic acid [5-(6-chloro-1,1-dimethyl-3-oxo-1,3-dihydro-isoindol-2-yl)-pyridin-3-ylmethyl]-amide]: the EC50 on human CYP11B2 was determined as 8.8 nM; at human CYP11B1, 256 nM.

As to `C[C@@H](O)c1cncc(N2CCc3cc(Cl)ccc3C2=O)c1` [Example 14, 6-Chloro-2-[5-((R)-1-hydroxy-ethyl)-pyridin-3-yl]-3,4-dihydro-2H-isoquinolin-1-one], the EC50 at human CYP11B2 came out at 55 nM; at human CYP11B1 it was 1100 nM.

As for `Cn1nccc1-c1cncc(N2C(=O)c3ccc(Cl)nc3C2(C)C)c1` [Example 425, 2-Chloro-7,7-dimethyl-6-[5-(2-methyl-2H-pyrazol-3-yl)-pyridin-3-yl]-6,7-dihydro-pyrrolo[3,4-b]pyridin-5-one], the EC50 at human CYP11B2 is 56.2 nM; at human CYP11B1 it was 1270 nM.

Turning to `O=C1c2ccc(Cl)cc2CCN1c1cncc(Cn2cnnc2)c1` [Example 179, 6-Chloro-2-(5-[1,2,4]triazol-4-ylmethyl-pyridin-3-yl)-3,4-dihydro-2H-isoquinolin-1-one], the EC50 was determined as 620 nM on human CYP11B2 and 7720 nM on human CYP11B1.

For the compound `CC(Nc1ccccc1)c1cncc(N2CCc3cc(Cl)ccc3C2=O)c1` (stereo not drawn) [Example 278, 6-Chloro-2-[5-(1-phenylamino-ethyl)-pyridin-3-yl]-3,4-dihydro-2H-isoquinolin-1-one], the EC50 at human CYP11B2 came to 6.1 nM; on human CYP11B1, 34.4 nM.

Regarding `Cn1ccc2cncc(N3CCc4cc(Cl)ccc4C3=O)c21` [Example 65, 6-Chloro-2-(1-methyl-1H-pyrrolo[3,2-c]pyridin-7-yl)-3,4-dihydro-2H-isoquinolin-1-one], the concentration for a half-maximal effect (EC50) on human CYP11B2 was 97.3 nM; at human CYP11B1 it was 2350 nM.

For `O=C1c2ccc(Cl)cc2CN1c1cncc2c1CCCC2O` (stereo not drawn) [Example 117, 5-Chloro-2-(8-hydroxy-5,6,7,8-tetrahydro-isoquinolin-4-yl)-2,3-dihydro-isoindol-1-one], the figures for the 50% effective concentration (EC50) at human CYP11B2 and at human CYP11B1 were 127 nM and 894 nM, respectively.

With `O=C1OCCN1Cc1cncc(N2CCc3cc(Cl)ccc3C2=O)c1` [Example 157, 6-Chloro-2-[5-(2-oxo-oxazolidin-3-ylmethyl)-pyridin-3-yl]-3,4-dihydro-2H-isoquinolin-1-one], the 50% effective concentration (EC50) at human CYP11B2 amounted to 352 nM; on human CYP11B1 it was 11200 nM.

On to `CC[C@H]1c2cc(Cl)ccc2C(=O)N1c1cncc2c1CCC[C@@H]2NC(C)=O` (single isomer, unassigned) [Example 356, N-[(S or R)-4-((S or R)-5-Chloro-3-ethyl-1-oxo-1,3-dihydro-isoindol-2-yl)-5,6,7,8-tetrahydro-isoquinolin-8-yl]-acctamide], for which the concentration giving a half-maximal response (EC50) at human CYP11B2 stood at 2000 nM; at human CYP11B1, 737 nM.

Turning to `Cc1cccnc1C(=O)NCc1cncc(N2C(=O)c3ccc(Cl)cc3C2(C)C)c1` [Example 430, 3-Methyl-pyridine-2-carboxylic acid [5-(6-chloro-1,1-dimethyl-3-oxo-1,3-dihydro-isoindol-2-yl)-pyridin-3-ylmethyl]-amide], the figures for the half-maximal effective concentration (EC50) at human CYP11B2 and at human CYP11B1 were 6.9 nM and 737 nM, respectively.

Turning to `Cc1ccncc1C(=O)NCc1cncc(N2C(=O)c3ccc(Cl)cc3C2(C)C)c1` [Example 440, N-[5-(6-Chloro-1,1-dimethyl-3-oxo-1,3-dihydro-isoindol-2-yl)-pyridin-3-ylmethyl]-4-methyl-nicotinamide], the EC50 at human CYP11B2 turned out to be 17.6 nM; at human CYP11B1 it was 1270 nM.

With `Cn1ccnc1C(=O)c1cncc(N2CCc3cc(Cl)ccc3C2=O)c1` [Example 267, 6-Chloro-2-[5-(1-methyl-4H-imidazole-2-carbonyl)-pyridin-3-yl]-3,4-dihydro-2H-isoquinolin-1-one], the half-maximal effective concentration (EC50) at human CYP11B2 came to 1610 nM; at human CYP11B1 it was 11300 nM.

In the case of `O=C1c2ccc(Cl)cc2CCN1c1cncc(O)c1` [Example 252, 6-Chloro-2-(5-hydroxy-pyridin-3-yl)-3,4-dihydro-2H-isoquinolin-1-one], the EC50 on human CYP11B2 turned out to be 272 nM; at human CYP11B1, 9760 nM.

`CC(O)c1cncc(N2C(=O)c3ccc(Cl)cc3C2(C)C)c1` (stereo not drawn) [Example 132, 5-Chloro-2-[5-(1-hydroxy-ethyl)-pyridin-3-yl]-3,3-dimethyl-2,3-dihydro-isoindol-1-one]: the EC50 was determined as 37.8 nM on human CYP11B2 and 527 nM on human CYP11B1.

`Cc1n[nH]cc1-c1cncc(N2CCc3cc(Cl)ccc3C2=O)c1` [Example 419, 6-Chloro-2-[5-(3-methyl-1H-pyrazol-4-yl)-pyridin-3-yl]-3,4-dihydro-2H-isoquinolin-1-one]: the figures for the EC50 on human CYP11B2 and at human CYP11B1 were 9.1 nM and 122 nM, respectively.

For the compound `O=C1NCCN1Cc1cncc(N2CCc3cc(Cl)ccc3C2=O)c1` [Example 158, 6-Chloro-2-[5-(2-oxo-imidazolidin-1-ylmethyl)-pyridin-3-yl]-3,4-dihydro-2H-isoquinolin-1-one], the EC50 came to 182 nM at human CYP11B2 and 6030 nM at human CYP11B1.

As to `O=C1c2ccc(Cl)cc2CCN1c1cncc(CN2CCC[C@H]2CO)c1` [Example 149, 6-Chloro-2-[5-((S)-2-hydroxymethyl-pyrrolidin-1-ylmethyl)-pyridin-3-yl]-3,4-dihydro-2H-isuquinolin-1-one], the EC50 at human CYP11B2 was determined as 126 nM; at human CYP11B1, 1920 nM.

With `CC(c1cncc(N2CCc3cc(Cl)ccc3C2=O)c1)N(C)C` (stereo not drawn) [Example 266, 6-Chloro-2-[5-(1-dimethylamino-ethyl)-pyridin-3-yl]-3,4-dihydro-2H-isoquinolin-1-one], the concentration giving a half-maximal response (EC50) at human CYP11B2 was determined as 44.4 nM; at human CYP11B1, 276 nM.

Take `CC(OCc1cncc(N2CCc3cc(Cl)ccc3C2=O)c1)C(F)(F)F` (stereo not drawn) [Example 195, 6-Chloro-2-[5-(2,2,2-trifluoro-1-methyl-ethoxymethyl)-pyridin-3-yl]-3,4-dihydro-2H-isoquinolin-1-one]: the 50% effective concentration (EC50) was 37.3 nM on human CYP11B2 and 486 nM at human CYP11B1.

In the case of `Cc1ccn(Cc2cncc(N3CCc4cc(Cl)ccc4C3=O)c2)n1` [Example 190, 6-Chloro-2-[5-(3-methyl-pyrazol-1-ylmethyl)-pyridin-3-yl]-3,4-dihydro-2H-isoquinolin-1-one], the EC50 was 328 nM on human CYP11B2 and 7320 nM on human CYP11B1.

Consider `CC1(C)c2cc(Cl)ccc2C(=O)N1c1cccnc1` [Example 128, 5-Chloro-3,3-dimethyl-2-pyridin-3-yl-2,3-dihydro-isoindol-1-one], for which the figures for the 50% effective concentration (EC50) on human CYP11B2 and on human CYP11B1 were 108 nM and 4280 nM, respectively.

Turning to `CCC(=O)NCc1cncc(N2C(=O)c3ccc(Cl)cc3C23CC3)c1` [Example 396, N-{[5-(6′-Chloro-3′-oxospiro [cyclopropane-1,1′-isoindol]-2′(3′H)-yl)pyridin-3-yl]methyl} propanamide], the EC50 came to 207 nM on human CYP11B2 and 5250 nM on human CYP11B1.
